Experimental data as given in patent US5672582A, “Thrombin inhibitors” (Merck & Co., Inc., priority 1994, dated 1997).
Read-outs that look alike come from different tables or passages of the source.

What was measured:
[1] = target: tissue plasminogen activator (t-PA) (Homo sapiens, UniProt P00750); test: Chromogenic assay, tissue plasminogen activator; format: biochemical; conditions: Table 3, read-out: Ki (nM) tPA
[2] = target: T1, plasma kallikrein (p-Kal) (Homo sapiens, UniProt P03952); test: Chromogenic assay, plasma kallikrein; format: biochemical; conditions: Table 3
T1 construct: plasma kallikrein (p-Kal)

[3] = target: T2, bovine trypsin (Bos taurus, UniProt P00760); test: Proteinase inhibition assay, bovine trypsin; format: biochemical
T2 sequence (P00760 24-246): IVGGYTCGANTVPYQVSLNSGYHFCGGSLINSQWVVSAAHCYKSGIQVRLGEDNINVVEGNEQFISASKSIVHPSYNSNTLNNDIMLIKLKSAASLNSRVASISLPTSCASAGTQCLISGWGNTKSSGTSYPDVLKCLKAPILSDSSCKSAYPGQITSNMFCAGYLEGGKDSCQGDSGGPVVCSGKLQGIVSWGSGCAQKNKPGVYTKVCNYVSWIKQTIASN
Protocol: (§1) Assays of human α-thrombin and bovine trypsin were performed at 25° C. in 0.05M TRIS buffer pH 7.4, 0.15M NaCl, 0.1% PEG. Trypsin assays also contained 1 mM CaCl2.
In assays wherein rates of hydrolysis of a p-nitroanilide (pna) substrate were determined, a Thermomax 96-well plate reader was used was used to measure (at 405 nm) the time dependent appearance of p-nitroaniline. sar-PR-pna was used to assay human α-thrombin (Km =125 μM) and bovine trypsin (Km =125 μM). "Sar" is the three letter abbreviation for the amino acid sarcosine (N-methylglycine). p-Nitroanilide substrate concentration was determined from measurements of absorbance at 342 nm using an extinction coefficient of 8270 cm^-1 M^-1.
(§2) Times required to achieve equilibration between enzyme and inhibitor were determined in control experiments. Initial velocities of product formation in the absence (Vo) or presence of inhibitor (Vi) were measured. Assuming competitive inhibition, and that unity is negligible compared Km /[S], [S]/e, and [I]/e (where [S], [I], and e respectively represent the total concentrations, of substrate, inhibitor and enzyme), the equilibrium constant (Ki) for dissociation of the inhibitor from the enzyme can be obtained from the dependence of Vo /Vi on [I] shown in equation 1.
Using the assays described above, the following additional embodiments of the invention were evaluated and shown to be selective for inhibiting thrombin. The constants were determined at pH 7.4 in buffer containing 0.05M Tris, 0.15M NaCl, 0.1% PEG-8000 at room temperature.

[4] = target: plasmin (Pl) (Homo sapiens, UniProt P00747); test: Chromogenic assay, plasmin; format: biochemical; conditions: Table 3
[5] = target: T3, Factor Xa (fXa) (Homo sapiens, UniProt P00742); test: Chromogenic assay, Factor Xa; format: biochemical; conditions: Table 3
T3 construct: Factor Xa (fXa), plasma kallikrein (p-Kal), plasmin (Pl)

[6] = target: activated protein C (APC) (Homo sapiens, UniProt P04070); test: Chromogenic assay, activated protein C; format: biochemical; conditions: Table 3
[7] = target: human α-thrombin (Homo sapiens, UniProt P00734); test: Proteinase inhibition assay, human α-thrombin; format: biochemical; conditions: for Ratio: Ki trypsin / Ki thrombin
Protocol: as §1
"Sar" is the three letter abbreviation for the amino acid sarcosine (N-methylglycine). p-Nitroanilide substrate concentration was determined from measurements of absorbance at 342 nm using an extinction coefficient of 8270 cm^-1 M^-1.
Concentrations of stock solutions of Z-GPR-afc were determined from measurements of absorbance at 380 nm (extinction coefficient=12600 cm^-1 M^-1) of the 7-amino-4-trifluoromethyl coumarin produced upon complete hydrolysis of an aliquot of the stock solution by thrombin.
as §2
The constants were determined at pH 7.4 in buffer containing 0.05M Tris, 0.15M NaCl, 0.1% PEG-8000 at room temperature.

[8] = system: FeCl3 induced arterial thrombosis in rats; test: Rat ferric chloride assay; format: in vivo
Protocol: In the assay, male Sprague-Dawley rats (body weights 200-350 grams) were anesthetized with dial-urethane solution (0.1 ml/100 gm body weight i.p.), and a lateral tail vein was cannulated with a 23 gauge needle connected to a 12 inch length of PE50 robing. The robing was attached to a 3-way valve by a tubing adapter. Saline (control) or test compound, as appropriate, was administered via the tail vein catheter. A tracheostomy was performed with a 0.75 inch length of PE205 tubing. The right carotid artery was exposed and a 1.3 mm diameter Doppler flow probe was placed on the vessel. Body temperature was maintained at 37° C. using a heat lamp.
Rats (8-10/group) were randomized to continuous intravenous infusions of saline or test compound administered via the tail vein at a rate of 0.028 ml/min. Treatment infusions were initiated 60 min before the placement of a 3 mm square piece of Whatman No. 1 filter paper saturated with 35% FeCl3 onto the exposed carotid artery distal to the flow probe. […] Time to occlusion was defined as the time from application of FeCl3 to thrombotic occlusion of the vessel.

[9] = Oral bioavailability in rhesus monkeys; format: in vivo, rhesus monkey; conditions: oral (nasogastric tube), plasma
Protocol: (§3) Concentration was determined in animal plasma after oral (gastric lavage) administration.
In monkeys, the test agent was administered intravenously as a bolus or orally by pediatric nasogastric tube. For intravenous studies, the sterile agent was dissolved in sterile 0.9% saline and administered via 21 g butterfly, usually via the brachial vein. For oral studies, the sterile agent was dissolved in sterile water and administered via a nasogastric tube. Blood samples (4 cc each) were collected with a plastic syringe containing 3.8% sodium citrate via venipuncture (at sites other than that of drug administration) for drug plasma levels and thrombin clotting time assay. The monkeys were given water ad lib. Monkeys were allowed to recover 14 days before being used again in a similar protocol.
(§4) Thrombin inhibitor concentrations in plasma were determined by the inactivation of a known amount of thrombin (where [thrombin]>>Ki of inhibitor) from an aliquot of acid-neutralized rat plasma. 0.25 ml of rat platelet poor plasma was mixed with 25 μl of 3M perchloric acid. The sample was centrifuged (14,000×g for 10 minutes) and 0.2 ml of the supernatant was neutralized with 0.43 ml of 1M TrisB 0.15M NaCl/0.1% PEG 8000 pH 7.8. 50-100 μl of acid-neutralized rat plasma was mixed with 50-100 μl of 0.03-3 μM thrombin. […]

[10] = Oral bioavailability in rats; format: in vivo; conditions: rat, oral (gastric lavage), plasma
Protocol: as §3
Rats were anesthetized and instrumented with indwelling left jugular vein and left carotid artery catheters for test agent administration and for serial blood sampling, respectively. One day after instrumentation, blood samples were obtained before saline or inhibitor administration and at increasing time points after the oral administration.
Thrombin inhibitor concentrations in plasma were determined by the inactivation of a known amount of thrombin (where [thrombin]>>Ki of inhibitor) from an aliquot of acid-neutralized rat plasma. 0.25 ml of rat platelet poor plasma was mixed with 25 μl of 3M perchloric acid. The sample was centrifuged (14,000×g for 10 minutes) and 0.2 ml of the supernatant was neutralized with 0.43 ml of 1M TrisB 0.15M NaCl/0.1% PEG 8000 pH 7.8. 50-100 μl of acid-neutralized rat plasma was mixed with 50-100 μl of 0.03-3 μM thrombin. After equilibration, 5-10 μl of 5 mM Sar-Pro-Arg-pna (for <0.1 μM thrombin) or Spectrozyme PCa (for >0.1 μM thrombin) was added. The observed inhibited velocity was compared to inhibited velocities from a standard curve generated from rat plasma containing known amounts of inhibitor treated in an identical manner. The table below summarizes the results from these studies.

[11] = Oral bioavailability in dogs; format: in vivo; conditions: dog, oral (gastric lavage), plasma
Protocol: as §3
In dogs, the test agent was administered intravenously as a bolus or orally by gastric lavage. For intravenous studies, the sterile agent is dissolved in sterile 0.9% saline and administered via 19 g butterfly, usually via the saphenous vein. For oral studies, the sterile agent was dissolved in sterile water and administered via a feeding tube. Blood samples (5 cc each) were collected with a plastic syringe containing 3.8% sodium citrate via venipuncture (at sites other than that of drug administration) for drug plasma levels and thrombin clotting time assay. Dogs were allowed to recover 14 days before being used again in a similar protocol.
as §4, with “thrombin. After equilibration, 5-10 μl of 5 mM Sar-Pro-Arg-pna (for <0.1 μM thrombin) or Spectrozyme PCa (for >0.1 μM thrombin) was added.” for “thrombin.”

[12] = Table 2, pH 7.4, 0.05M Tris, 0.15M NaCl, 0.1% PEG-8000, room temperature, read-out: Ki (nM) Trypsin
[13] = Table 2, pH 7.4, 0.05M Tris, 0.15M NaCl, 0.1% PEG-8000, room temperature, read-out: Ki (nM) Thrombin
[14] = Table 1, 25° C., 0.05M TRIS pH 7.4, 0.15M NaCl, 0.1% PEG, 1 mM CaCl2, read-out: Ki (μM) Trypsin
[15] = Table 1, 25° C., 0.05M TRIS pH 7.4, 0.15M NaCl, 0.1% PEG, read-out: Ki (μM) Thrombin

T1 sequence (P03952 391-638 limits assumed, species assumed): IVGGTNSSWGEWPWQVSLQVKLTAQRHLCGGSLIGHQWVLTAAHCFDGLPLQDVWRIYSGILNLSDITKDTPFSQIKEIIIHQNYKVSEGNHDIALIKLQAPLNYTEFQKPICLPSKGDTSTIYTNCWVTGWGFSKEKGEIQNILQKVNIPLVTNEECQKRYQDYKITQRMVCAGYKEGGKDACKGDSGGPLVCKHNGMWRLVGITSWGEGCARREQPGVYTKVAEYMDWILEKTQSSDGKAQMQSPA
T1 sequence (P03952 20-390 limits assumed, species assumed): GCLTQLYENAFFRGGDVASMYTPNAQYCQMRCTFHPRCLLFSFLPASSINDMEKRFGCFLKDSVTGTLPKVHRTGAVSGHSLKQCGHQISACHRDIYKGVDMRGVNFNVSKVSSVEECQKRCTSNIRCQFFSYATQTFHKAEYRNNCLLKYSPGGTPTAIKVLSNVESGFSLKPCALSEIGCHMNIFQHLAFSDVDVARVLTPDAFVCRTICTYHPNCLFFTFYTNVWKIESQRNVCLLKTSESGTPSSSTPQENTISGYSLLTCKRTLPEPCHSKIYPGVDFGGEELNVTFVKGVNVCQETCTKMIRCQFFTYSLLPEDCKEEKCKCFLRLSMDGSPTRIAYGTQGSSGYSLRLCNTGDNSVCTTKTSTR
T3 sequence (P00742 235-488 limits assumed): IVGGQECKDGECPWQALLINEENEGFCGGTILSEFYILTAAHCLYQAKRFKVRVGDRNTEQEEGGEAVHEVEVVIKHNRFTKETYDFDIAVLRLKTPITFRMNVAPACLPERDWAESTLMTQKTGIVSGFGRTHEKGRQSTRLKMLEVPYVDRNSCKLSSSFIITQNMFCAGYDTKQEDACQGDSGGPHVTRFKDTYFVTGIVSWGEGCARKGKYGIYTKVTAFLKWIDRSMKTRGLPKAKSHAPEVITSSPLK
T3 sequence (P00742 41-179 limits assumed): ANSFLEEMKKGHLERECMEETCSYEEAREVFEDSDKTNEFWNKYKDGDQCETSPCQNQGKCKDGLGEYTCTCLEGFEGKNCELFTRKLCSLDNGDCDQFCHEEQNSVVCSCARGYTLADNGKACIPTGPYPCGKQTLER
Chain of tissue plasminogen activator (t-PA) (P00750 36-562, species assumed): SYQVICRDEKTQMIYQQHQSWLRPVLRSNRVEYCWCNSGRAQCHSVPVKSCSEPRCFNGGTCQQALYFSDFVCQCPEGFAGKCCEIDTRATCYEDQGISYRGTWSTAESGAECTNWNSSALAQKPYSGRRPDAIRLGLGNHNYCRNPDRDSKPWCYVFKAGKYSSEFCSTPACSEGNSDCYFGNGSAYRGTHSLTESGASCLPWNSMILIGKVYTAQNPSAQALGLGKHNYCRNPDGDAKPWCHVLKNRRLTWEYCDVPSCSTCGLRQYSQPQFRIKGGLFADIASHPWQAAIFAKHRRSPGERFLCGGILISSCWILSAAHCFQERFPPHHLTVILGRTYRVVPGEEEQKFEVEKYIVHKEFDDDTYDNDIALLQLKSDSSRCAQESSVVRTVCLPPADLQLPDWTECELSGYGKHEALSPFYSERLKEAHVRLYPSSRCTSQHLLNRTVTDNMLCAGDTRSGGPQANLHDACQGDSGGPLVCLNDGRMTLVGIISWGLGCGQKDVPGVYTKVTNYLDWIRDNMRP
Chain of activated protein C (APC) (P04070 212-461 limits assumed): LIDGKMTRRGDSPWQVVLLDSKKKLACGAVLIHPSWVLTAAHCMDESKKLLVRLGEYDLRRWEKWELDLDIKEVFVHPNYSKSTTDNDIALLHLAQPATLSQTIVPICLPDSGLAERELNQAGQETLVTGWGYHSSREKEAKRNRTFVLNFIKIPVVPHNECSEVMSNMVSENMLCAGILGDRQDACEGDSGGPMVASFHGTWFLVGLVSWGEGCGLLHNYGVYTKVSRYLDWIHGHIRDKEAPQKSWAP
Chain of activated protein C (APC) (P04070 43-197 limits assumed): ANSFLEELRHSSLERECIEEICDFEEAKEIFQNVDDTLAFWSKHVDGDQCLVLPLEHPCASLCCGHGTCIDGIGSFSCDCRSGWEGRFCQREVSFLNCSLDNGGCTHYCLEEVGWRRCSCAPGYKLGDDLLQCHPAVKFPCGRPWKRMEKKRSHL
Chain of plasmin (Pl) (P00747 581-810 limits assumed, species assumed): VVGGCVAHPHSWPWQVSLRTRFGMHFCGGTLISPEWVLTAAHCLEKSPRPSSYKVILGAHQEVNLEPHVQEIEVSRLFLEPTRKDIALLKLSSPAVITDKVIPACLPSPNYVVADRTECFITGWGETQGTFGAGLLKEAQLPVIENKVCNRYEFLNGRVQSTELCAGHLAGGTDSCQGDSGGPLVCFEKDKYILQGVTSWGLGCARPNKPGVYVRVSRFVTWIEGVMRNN
Chain of plasmin (Pl) (P00747 97-580 limits assumed, species assumed): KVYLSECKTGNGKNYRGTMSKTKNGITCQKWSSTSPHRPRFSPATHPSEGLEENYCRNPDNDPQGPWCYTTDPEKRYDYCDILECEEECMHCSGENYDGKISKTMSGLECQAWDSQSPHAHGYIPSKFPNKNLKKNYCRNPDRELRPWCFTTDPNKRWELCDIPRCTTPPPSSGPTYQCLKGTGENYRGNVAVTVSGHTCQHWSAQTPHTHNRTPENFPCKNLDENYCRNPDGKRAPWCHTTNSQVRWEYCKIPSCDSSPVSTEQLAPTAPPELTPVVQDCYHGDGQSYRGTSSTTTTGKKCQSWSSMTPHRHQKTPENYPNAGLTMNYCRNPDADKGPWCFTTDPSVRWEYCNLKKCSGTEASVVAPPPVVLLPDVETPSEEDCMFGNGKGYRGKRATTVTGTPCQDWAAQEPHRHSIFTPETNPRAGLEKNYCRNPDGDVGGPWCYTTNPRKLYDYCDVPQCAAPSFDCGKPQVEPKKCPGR

Row | Compound | Ki [1] | Ki [2] | Ki [3, 12] | Ki [4] | Ki [5] | Ki [6] | Ki [7, 13] | also measured
1 | CNC(=O)C(=O)C(NC(=O)C1CCCN1C(=O)CCc1ccccc1)C1CCC(N)CC1 (mixture of isomers) [ix] | > 10000 nM | > 10000 nM | > 10000 nM | > 10000 nM | > 10000 nM | > 10000 nM | 4 nM | 
2 | CNC(=O)C(=O)C(CC1CCC(N)CC1)NC(=O)C1CCCN1C(=O)C(Cc1ccccc1)NC (stereo not shown) [vi] |  |  |  |  |  |  |  | Ki [3, 14]: 1440 nM; Ki [7, 15]: 52 nM; Ratio ([7]; Table 1): 28
3 | CNC(Cc1ccccc1)C(=O)N1CCCC1C(=O)NC(C(=O)C(=O)NC1CC1)C1CCC(N)CC1 (mixture of isomers) [xvii] | > 10000 nM | 9000 nM | 120 nM | > 10000 nM | > 10000 nM | > 10000 nM | 0.07 nM | 
4 | CNC(Cc1ccccc1)C(=O)N1CCCC1C(=O)NC(C(=O)C(=O)O)C1CCC(N)CC1 (racemic) [3-3, H-NMe-D-Phe-Pro-t-DL-AcgY[COCO]--OH] | > 10000 nM | 7000 nM |  | > 10000 nM | > 10000 nM | > 10000 nM |  | Incidence of occlusion ([8]; 10 μg/kg/min i.v. infusion): 3/4; Minutes to occulsion of those occluding ([8]; 10 μg/kg/min i.v. infusion): 22 to 24 min; Incidence of occlusion ([8]; 20 μg/kg/min i.v. infusion): 0/4; Incidence of occlusion ([8]; 50 μg/kg/min i.v. infusion): 0/4; Ki [3, 14]: 51 nM; Ki [7, 15]: 0.05 nM; Ratio ([7]; Table 1): 1000
5 | CNC(=O)C(=O)C(NC(=O)C1CCCN1C(=O)CC(c1ccccc1)c1ccccc1)C1CCC(N)CC1 (mixture of isomers) [xv] | > 10000 nM | > 10000 nM | 2000 nM | > 10000 nM | > 10000 nM | > 10000 nM | 0.03 nM | 
6 | CNC(=O)C(=O)C(NC(=O)C1CCCN1C(=O)C(Cc1ccc(Cl)c(Cl)c1)NC)C1CCC(N)CC1 (stereo not shown) [xii] | > 10000 nM | > 10000 nM | 660 nM | > 10000 nM | 2300 nM | > 10000 nM | 0.025 nM | 
7 | CNC(Cc1ccccc1)C(=O)N1CCCC1C(=O)NC(C(=O)C(=O)N1CCC1)C1CCC(N)CC1 (mixture of isomers) [xviii] | > 10000 nM | > 10000 nM | 760 nM | > 10000 nM | > 10000 nM | > 10000 nM | 0.04 nM | 
8 | CNC(=O)C(=O)C(NC(=O)C1CCCN1C(=O)C(Cc1ccccc1)NC)C1CCC(N)CC1 [4-4, H-NMe-D.-Phe-Pro-t-L-Acg.PSI.[COCO]--NHMe] | > 10000 nM | > 10000 nM |  | > 10000 nM | > 10000 nM | > 10000 nM |  | % bioavailable [9]: 5%; Incidence of occlusion ([8]; 1 μg/kg/min i.v. infusion): 3/4; Minutes to occulsion of those occluding ([8]; 1 μg/kg/min i.v. infusion): 21 min; Incidence of occlusion ([8]; 5 μg/kg/min i.v. infusion): 2/4; Minutes to occulsion of those occluding ([8]; 5 μg/kg/min i.v. infusion): 18 to 20 min; Incidence of occlusion ([8]; 10 μg/kg/min i.v. infusion): 0/4; Ki ([3]; Table 1, 25° C., 0.05M TRIS pH 7.4, 0.15M NaCl, 0.1% PEG, 1 mM CaCl2, listed as drawing 22, read-out: Ki (μM) Trypsin): 1150 nM; % bioavailable [10]: 5%; % bioavailable [11]: 8%
9 | CNC(=O)C(=O)C(NC(=O)C1CCCN1C(=O)C(Cc1ccccc1)NC)C1CCC(N)CC1 [4-3, H-NMe-D-Phe-Pro-t-D-Acg.PSI.[COCO]--NHMe] |  |  |  |  |  |  |  | Ki ([3]; Table 1, 25° C., 0.05M TRIS pH 7.4, 0.15M NaCl, 0.1% PEG, 1 mM CaCl2, listed as drawing 21, read-out: Ki (μM) Trypsin): 7000 nM
10 | CNC(Cc1ccccc1)C(=O)N1CCCC1C(=O)NC(C(=O)C(=O)NCc1ccccc1)C1CCC(N)CC1 (mixture of isomers) [xvi] | > 10000 nM | > 10000 nM | 120 nM | > 10000 nM | > 10000 nM | > 10000 nM | 0.6 nM | 
11 | CNC(=O)C(=O)C(NC(=O)C1CCCN1C(=O)C(Cc1ccc2ccccc2c1)NC)C1CCC(N)CC1 (stereo not shown) [xiv] | > 10000 nM | > 10000 nM | 2100 nM | > 10000 nM | 9000 nM | > 10000 nM | 0.09 nM | 
12 | CNC(=O)C(=O)C(NC(=O)C1CCCN1C(=O)C(CC1CCCCC1)NC)C1CCC(N)CC1 (stereo not shown) [x] | > 10000 nM | > 10000 nM | 310 nM | 6000 nM | 3000 nM | > 10000 nM | 0.07 nM | 
13 | CNC(=O)C(=O)C(NC(=O)C1CCCN1C(=O)CCc1ccc(Cl)c(Cl)c1)C1CCC(N)CC1 (stereo not shown) [xi] | > 10000 nM | > 10000 nM | > 10000 nM | > 10000 nM | > 10000 nM | > 10000 nM | 0.4 nM | 
14 | CNC(=O)C(=O)C(NC(=O)C1CCCN1C(=O)CCC1CCCCC1)C1CCC(N)CC1 (stereo not shown) [xiii] | > 10000 nM | > 10000 nM | 4000 nM | > 10000 nM | > 10000 nM | > 10000 nM | 2.2 nM | 
